Experimental data as given in article PMC10794144, “A novel antibiotic class targeting the lipopolysaccharide transporter” (Nature, 2024).
≈ marks a conversion by molar mass, not a printed value. Where “and” joins values, the source holds several entries; their conditions need not be identical. Equal values may be shown once. Read-outs that look alike come from different tables or passages of the source.

Tests used:
Abl kinase = molecular target: T1, Abl kinase (Homo sapiens, UniProt P00519); experiment: Off-target screening (CEREP); format: biochemical; conditions: read-out: percent inhibition
T1 construct: purchased Eurofins CEREP SA
Protocol: (§1) Supplementary Table 1 │ Off-target activity screening f or MCP compou nds […]
(§2) The assays given in the table above were conducted at Eurofins CEREP S A (Celle-Lévescault, France) and were run as single point measurements in duplicates in the presence of 10 µ M of the test compound and reported as percent inhibition of the radioligand signal or control enzymatic activity. n.d., not

ZAP70 kinase = molecular target: T2, ZAP70 kinase (Homo sapiens, UniProt P43403); experiment: Off-target screening (CEREP); format: biochemical; conditions: read-out: percent inhibition
T2 construct: purchased Eurofins CEREP SA
T2 sequence (P43403 1-619): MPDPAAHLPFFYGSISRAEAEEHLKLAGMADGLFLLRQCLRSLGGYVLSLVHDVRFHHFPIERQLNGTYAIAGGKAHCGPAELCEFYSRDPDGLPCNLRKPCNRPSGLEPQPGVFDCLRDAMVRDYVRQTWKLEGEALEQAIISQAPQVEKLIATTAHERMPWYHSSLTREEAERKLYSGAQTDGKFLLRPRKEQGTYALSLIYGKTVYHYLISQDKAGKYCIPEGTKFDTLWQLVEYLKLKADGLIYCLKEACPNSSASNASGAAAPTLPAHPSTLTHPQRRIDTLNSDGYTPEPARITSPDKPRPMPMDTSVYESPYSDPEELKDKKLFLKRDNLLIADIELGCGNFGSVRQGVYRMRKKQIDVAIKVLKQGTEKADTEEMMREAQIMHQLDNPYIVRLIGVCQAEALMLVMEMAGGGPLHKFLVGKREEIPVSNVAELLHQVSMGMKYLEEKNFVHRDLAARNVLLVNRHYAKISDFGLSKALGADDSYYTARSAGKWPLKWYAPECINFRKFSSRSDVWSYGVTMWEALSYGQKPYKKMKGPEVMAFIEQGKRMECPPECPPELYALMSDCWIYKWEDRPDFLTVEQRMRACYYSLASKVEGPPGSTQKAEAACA
Protocol: as §1, §2

[1] = Mouse pharmacokinetics study, i.v. bolus; format: in vivo; conditions: male CD1 mice, 1 mg/kg IV; for Vss / t1/2, terminal plasma half-life: n = 3; for Cl: n = 3, LC-MS, non-compartmental
Protocol: Three male CD1 mice were administered with compound formulation (0.5 mg ml^−1 in 0.9% aqueous sodium chloride solution) as an intravenous bolus dose of 1 mg per kg. Blood was sampled at 0.08, 0.25, 0.5, 1, 2, 4, 7 and 24 h after administration and the blood collecting tubes were centrifuged for 5 min at 5,200g at room temperature to isolate the plasma supernatant. The concentrations of compound in the plasma were analysed using a liquid chromatography–mass spectrometry method with a calibration range of 5–10,000 ng ml^−1. The pharmacokinetic parameters were derived from the individual concentration data and were estimated by non-compartmental analysis.

[2] = Human whole blood haemolysis assay; conditions: human heparinated blood, 10 min 37 °C
Protocol: For the in vitro haemolysis test, blood was provided by Roche medical services through an anonymous blood donation for research program, approved by the Ethics Committee Northwestern Switzerland and Central Switzerland (EKNZ) and collected with informed consent. Blood was collected by venipuncture in ethylenediaminetetraacetic acid (EDTA) and Li-heparin-coated tubes. Plasma was prepared from anticoagulated blood by centrifugation (2,500g; 10 min; at room temperature) and the haematocrit was measured to ensure that it was within normal reference values. Each formulation of compound in saline was added at a concentration of 8 mg ml^−1 into test tubes containing exactly 0.5 ml of heparinated blood to give a final assay volume of 1 ml and a concentration of 4 mg ml^−1 or less (following further dilutions). After incubation in a water bath for 10 min at 37 °C, the tubes were centrifuged (10 min, 1,811g at room temperature) and 100 μl of the supernatant was subsequently transferred into test tubes containing 5 ml Drabkins solution (RANDOX Laboratories) and 1 ml phosphate buffer. Haemoglobin was photometrically determined at 540 nm according to the RANDOX test-kit instructions. The results were expressed as percentage haemolysis extrapolated from an internal standard curve with 0%, 50% and 100% haemolysed blood samples.

Xanthine oxidase = molecular target: T3, Xanthine oxidase (Bos taurus, UniProt P80457); experiment: Off-target screening (CEREP); format: biochemical, bovine; conditions: read-out: percent inhibition
T3 construct: purchased Eurofins CEREP SA
Protocol: as §1, §2

[3] = Rat plasma precipitation assay; conditions: for Threshold concentration for precipitation: Wistar rat heparin plasma 1:1 with compound in saline/PBS, absorbance difference OD362 ≥ 0.05, n = 1
Protocol: Whole blood was obtained from WISTAR rats and collected in 1.2 ml heparin tubes for the preparation of heparin plasma. The tubes were then centrifuged for 5 min at 5,200g at room temperature to isolate the plasma supernatant. Test compounds were received as powder and solubilized at various concentrations in 0.9% aqueous sodium chloride solution and adjusted for pH with phosphate-buffered saline (PBS). The assay was conducted in 384-well plates. Rat plasma (10 µl) was added to 10 µl of the various compound solutions. A total of 10 µl of vehicle (0.9% aqueous sodium chloride solution, PBS) added to the plasma was used as a negative control. The absorption was measured at 362 nm. Raw data were obtained as absorbance data. The difference between the absorbance of the sample and the mean absorbance of the vehicle was calculated. The minimum effect concentration was defined as the lowest concentration giving an absorbance difference of OD362 ≥ 0.05.

C. albicans ATCC 90028 = experiment: microbe, parasite or virus in culture; conditions: Candida albicans
[4] = test system: Nicotinic receptor, neuronal; experiment: Off-target screening (CEREP); format: binding, human; conditions: 10 µM, duplicates
Protocol: as §1, §2

[5] = test system: Nicotinic receptor, muscle; experiment: Off-target screening (CEREP); format: binding, human; conditions: 10 µM, duplicates
Protocol: as §1, §2

A. baumannii = experiment: Immunocompetent mouse septicaemia infection model; format: in vivo; conditions: for Survivors, individual mouse status: ACC00445 septicaemia
Protocol: Septicaemia was induced in CD-1 immunocompetent male mice by an intraperitoneal inoculation of a bacterial suspension of the tested A. baumannii isolate at a challenge of approximately 1–2 log[CFU] above the determined median lethal dose (resulting in 10^5 to 10^7 CFU per mouse). […] Mouse survival was followed over 6–7 days. GraphPad Prism 8 was used for graphical presentation of the data. Septicaemia studies with mutant derivative isolates obtained in resistance studies were performed as described above, using a bacterial challenge as determined for the parental isolate.

[6] = murine septicaemia, MDR A. baumannii APV00535 (ACC00535), MCP 0.1 mg/kg, mark per mouse (10 mice), study VDD3948

T1 sequence (P00519 whole entry): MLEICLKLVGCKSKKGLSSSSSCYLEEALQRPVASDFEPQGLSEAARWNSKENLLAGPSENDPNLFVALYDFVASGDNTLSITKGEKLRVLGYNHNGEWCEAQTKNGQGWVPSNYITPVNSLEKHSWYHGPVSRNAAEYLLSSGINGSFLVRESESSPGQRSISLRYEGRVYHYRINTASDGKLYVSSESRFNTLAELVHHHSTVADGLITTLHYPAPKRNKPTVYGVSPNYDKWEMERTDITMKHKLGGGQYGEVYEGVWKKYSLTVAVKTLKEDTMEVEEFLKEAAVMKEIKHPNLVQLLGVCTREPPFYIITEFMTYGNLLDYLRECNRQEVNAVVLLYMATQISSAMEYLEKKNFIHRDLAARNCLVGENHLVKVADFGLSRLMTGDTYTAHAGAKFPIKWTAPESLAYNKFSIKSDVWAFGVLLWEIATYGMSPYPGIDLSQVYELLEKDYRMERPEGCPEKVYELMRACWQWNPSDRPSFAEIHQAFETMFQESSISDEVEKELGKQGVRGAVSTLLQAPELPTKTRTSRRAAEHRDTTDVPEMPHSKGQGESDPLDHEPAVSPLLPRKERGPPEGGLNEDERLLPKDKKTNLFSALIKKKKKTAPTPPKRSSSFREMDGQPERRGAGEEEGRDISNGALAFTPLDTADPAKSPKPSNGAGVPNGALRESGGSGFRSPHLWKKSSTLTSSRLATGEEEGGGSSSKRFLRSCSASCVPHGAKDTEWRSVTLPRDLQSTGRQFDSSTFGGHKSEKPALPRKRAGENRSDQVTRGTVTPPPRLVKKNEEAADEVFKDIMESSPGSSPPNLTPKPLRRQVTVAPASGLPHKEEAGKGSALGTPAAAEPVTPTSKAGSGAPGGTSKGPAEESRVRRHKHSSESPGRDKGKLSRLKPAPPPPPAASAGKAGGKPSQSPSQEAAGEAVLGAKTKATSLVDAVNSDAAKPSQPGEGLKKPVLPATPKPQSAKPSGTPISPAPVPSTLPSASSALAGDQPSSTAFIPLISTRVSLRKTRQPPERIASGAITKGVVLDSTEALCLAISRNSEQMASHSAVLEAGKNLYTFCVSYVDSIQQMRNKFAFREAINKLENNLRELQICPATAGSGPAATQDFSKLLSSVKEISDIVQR
T3 sequence (P80457 whole entry): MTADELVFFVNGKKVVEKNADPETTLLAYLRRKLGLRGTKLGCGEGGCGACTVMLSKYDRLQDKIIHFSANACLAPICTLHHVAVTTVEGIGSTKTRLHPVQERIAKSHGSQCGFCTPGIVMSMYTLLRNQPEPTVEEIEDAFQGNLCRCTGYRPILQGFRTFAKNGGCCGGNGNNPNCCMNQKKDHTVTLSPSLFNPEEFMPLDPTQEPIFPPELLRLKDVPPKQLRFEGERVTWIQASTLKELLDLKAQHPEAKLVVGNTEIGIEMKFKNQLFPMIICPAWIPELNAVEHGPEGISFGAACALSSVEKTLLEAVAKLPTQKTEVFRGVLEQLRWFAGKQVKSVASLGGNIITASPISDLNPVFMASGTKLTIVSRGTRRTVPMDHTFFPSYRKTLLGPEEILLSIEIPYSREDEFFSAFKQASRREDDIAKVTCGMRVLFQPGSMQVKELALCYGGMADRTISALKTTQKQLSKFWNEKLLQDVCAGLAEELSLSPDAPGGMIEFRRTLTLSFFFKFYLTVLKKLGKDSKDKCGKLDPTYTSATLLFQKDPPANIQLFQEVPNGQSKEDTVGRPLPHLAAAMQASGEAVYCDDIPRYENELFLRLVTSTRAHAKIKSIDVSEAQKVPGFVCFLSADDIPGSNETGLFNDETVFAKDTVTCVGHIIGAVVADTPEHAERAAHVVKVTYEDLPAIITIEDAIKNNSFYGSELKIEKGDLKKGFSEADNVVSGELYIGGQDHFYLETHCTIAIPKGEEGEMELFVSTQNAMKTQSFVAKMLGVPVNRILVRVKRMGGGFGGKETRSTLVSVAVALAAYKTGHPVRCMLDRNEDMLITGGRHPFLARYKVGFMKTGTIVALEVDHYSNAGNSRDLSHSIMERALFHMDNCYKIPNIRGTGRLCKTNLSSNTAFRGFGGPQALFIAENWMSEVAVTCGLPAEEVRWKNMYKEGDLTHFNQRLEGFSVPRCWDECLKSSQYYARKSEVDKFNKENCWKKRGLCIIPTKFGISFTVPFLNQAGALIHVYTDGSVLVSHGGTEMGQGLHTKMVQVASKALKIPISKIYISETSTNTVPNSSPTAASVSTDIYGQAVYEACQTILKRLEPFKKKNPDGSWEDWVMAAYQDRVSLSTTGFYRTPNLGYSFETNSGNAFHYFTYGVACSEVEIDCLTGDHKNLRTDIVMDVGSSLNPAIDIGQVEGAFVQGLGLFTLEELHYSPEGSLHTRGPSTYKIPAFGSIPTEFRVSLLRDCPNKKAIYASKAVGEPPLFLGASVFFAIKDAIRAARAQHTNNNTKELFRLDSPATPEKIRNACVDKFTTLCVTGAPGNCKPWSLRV

CN1C(=O)[C@H](CCCCN)NC(=O)[C@H](CCCN)NCc2cccnc2Sc2c(Cl)ccc(-c3ccc(C(=O)O)cc3)c2CNC(=O)[C@@H]1Cc1c[nH]c2ccccc12 [RO7202110]
inhibition at 10 µM (Abl kinase; 10 µM, duplicates): -24%
inhibition at 10 µM (ZAP70 kinase; 10 µM, duplicates): -39%
Vss [1]: 0.9 L/kg
t1/2, terminal plasma half-life [1]: 12 min
Cl [1]: 84 mL/min/kg
Haemolysis [2]: None
inhibition at 10 µM (Xanthine oxidase; 10 µM, duplicates): 0%
Threshold concentration for precipitation [3]: 0.39 mg/mL
MIC (C. albicans ATCC 90028; ATCC90028): > 64 µg/mL
percent inhibition [4]: 4%
percent inhibition [5]: 11%

CN1C(=O)[C@H](CCCCN)NC(=O)[C@H](CCCN)NCc2cccnc2Sc2c(Cl)ccc(Cl)c2CNC(=O)[C@@H]1Cc1c[nH]c2ccccc12 [RO7075573]
inhibition at 10 µM (Abl kinase): -85%
inhibition at 10 µM (ZAP70 kinase): -47%
Vss [1]: 0.3 L/kg
t1/2, terminal plasma half-life [1]: 120 min
Cl [1]: 5.7 mL/min/kg
Haemolysis ([2]; 4 mg/mL, haemoglobin at 540 nm): 37%
inhibition at 10 µM (Xanthine oxidase): 6%
Threshold concentration for precipitation [3]: 0.038 mg/mL and 0.0385 mg/mL
Threshold concentration causing precipitation ([3]; rat plasma): 52 µM
MIC (C. albicans ATCC 90028; ATCC90028): > 64 µg/mL
percent inhibition [4]: -7%
percent inhibition [5]: 5%
Protection in lethal sepsis model (A. baumannii; ACC00535, immunocompetent mice, s.c. doses between 0.1 and 0.3 mg per kg at 1 h and 5 h): complete protection
Survivors, 2016-02-03 (A. baumannii; murine septicaemia, MDR A. baumannii APV00535 (ACC00535), MCP 0.01 mg/kg, mark per mouse (10 mice), study VDD3948): 1
Survivors, 2016-02-03 (A. baumannii; murine septicaemia, MDR A. baumannii APV00535 (ACC00535), MCP 0.03 mg/kg, mark per mouse (10 mice), study VDD3948): 1
Survivors, 2016-02-03 (A. baumannii; [6]): 1
Survivors, 2016-02-04 (A. baumannii; [6]): 1

C[C@@H](O)[C@H]1C(=O)N2C(C(=O)O)=C(S[C@@H]3CN[C@H](C(=O)N(C)C)C3)[C@H](C)[C@H]12 [meropenem, reference compound]
MIC (C. albicans ATCC 90028; ATCC90028): > 64 µg/mL
MIC (C. albicans ATCC 90028; ATCC90028, read-out: MIC 100%): > 64 µg/mL
Survivors, individual mouse status (A. baumannii; 80 mg/kg, Day 1): 1
Survivors, individual mouse status (A. baumannii; 80 mg/kg, Day 2): 1
Survivors, 2016-02-03 (A. baumannii; murine septicaemia, MDR A. baumannii APV00535 (ACC00535), Meropenem 80 mg/kg, mark per mouse (10 mice), study VDD3948): 1

CN1C(=O)[C@H](CCCCN)NC(=O)[C@H](CCCN)NCc2cccnc2Sc2cccc(-c3ccc(C(=O)O)cc3)c2CNC(=O)[C@@H]1Cc1c[nH]c2ccccc12 [zosurabalpin]
inhibition at 10 µM (Abl kinase): -18%
inhibition at 10 µM (ZAP70 kinase): 1%
Vss [1]: 0.7 L/kg
t1/2, terminal plasma half-life [1]: 18 min
Cl [1]: 51 mL/min/kg
Haemolysis [2]: None
inhibition at 10 µM (Xanthine oxidase): 5%
Threshold concentration for precipitation [3]: 1.76 mg/mL
MIC (C. albicans ATCC 90028; ATCC90028): > 64 µg/mL
percent inhibition [4]: -11%
percent inhibition [5]: -16%
Survival rate from sepsis, treated (A. baumannii; ACC00445 parental, 2 x 30mg/kg s.c., vehicle 0): 0/100%
Survivors, individual mouse status (A. baumannii; 0.3 mg/kg s.c. at 1 and 5 h, Day 1): 1
Survival rate from sepsis, treated (A. baumannii; ACC00535 parental, 2 x 30mg/kg, vehicle 0): 0/100%
Survival rate from sepsis, treated (A. baumannii; ROB08706 parental, 2 x 30mg/kg, vehicle 0): 0/100%
Survival rate from sepsis, treated (A. baumannii; ROB08708 parental, 2 x 30mg/kg, vehicle 0): 0/100%
Survival rate from sepsis, treated (A. baumannii; ROB08961 (LpxM NS), 2 x 30mg/kg, vehicle 100): 100/100%
Survival rate from sepsis, treated (A. baumannii; ROB08979 (LptF R322L), 2 x 30mg/kg, vehicle 25): 25/50%
Survival rate from sepsis, treated (A. baumannii; ROB08982 (lpxM ISAba1), 2 x 30mg/kg, vehicle 87.5): 87.5/100%
Survival rate from sepsis, treated (A. baumannii; ROB08985 (LpxM NS), 2 x 30mg/kg, vehicle 100): 100/100%
Survival rate from sepsis, treated (A. baumannii; ROB08997 (LptF I323K), 2 x 30mg/kg, vehicle 0): 0/0%
Survival rate from sepsis, treated (A. baumannii; ROB08998 (AdeR A91V), 2 x 30mg/kg, vehicle 12.5): 12.5/100%
Survival rate from sepsis, treated (A. baumannii; ROB09000 (lpxM ISAba1), 2 x 30mg/kg, vehicle 100): 100/100%
Survival rate from sepsis, treated (A. baumannii; ROB21530 (LptF W271S), 2 x 30mg/kg, vehicle 25): 25/37.5%
Survival rate from sepsis, treated (A. baumannii; ROB21531 (LptG G40D), 2 x 30mg/kg, vehicle 0): 0/87.5%
Survival rate from sepsis, treated (A. baumannii; ROB21532 (LptF R322C), 2 x 30mg/kg, vehicle 50): 50/50%
Survival rate from sepsis, treated (A. baumannii; ROB21533 (LptF I317L), 2 x 30mg/kg, vehicle 0): 0/0%
Survival rate from sepsis, treated (A. baumannii; ROB23370 (adeS ISAba1), 2 x 30mg/kg, vehicle 0): 0/75%
Survival rate from sepsis, treated (A. baumannii; ROB23371 (AdeS R152K), 2 x 30mg/kg, vehicle 0): 0/100%
Survival rate from sepsis, treated (A. baumannii; ROB23373 (AdeS G318S), 2 x 30mg/kg, vehicle 0): 0/100%
Survival rate from sepsis, treated (A. baumannii; ROB23377 (AdeS R108S), 2 x 30mg/kg, vehicle 0): 0/100%
Survival rate from sepsis, treated (A. baumannii; ROB23380 (adeS ISAba1), 2 x 30mg/kg, vehicle 0): 0/100%

CN1C(=O)[C@H](CCCN)NC(=O)[C@H](CCCN)NCc2ccccc2Sc2ccccc2CNC(=O)[C@@H]1Cc1c[nH]c2ccccc12 [RO7036668]
inhibition at 10 µM (ZAP70 kinase; 10 µM, duplicates): 2%
inhibition at 10 µM (Xanthine oxidase; 10 µM, duplicates): -16%
MIC (C. albicans ATCC 90028; ATCC90028): 64 µg/mL (≈ 97.6 µM)
